Results as given in PMC11571215, “Optimization of Antiproliferative Properties of Triimine Copper(II) Complexes” (Journal of Medicinal Chemistry, 2024).

Assays:
[1] = tested on: A2780 cells (ovarian carcinoma); assay: MTS cell viability assay, A2780; format: cell-based, human; conditions: for IC50: 48 h of exposure, MTS, relative IC50, mean + SEM; for SI A2780: ratio IC50 fibroblasts / IC50 A2780
Description: The antiproliferative effect of the Cu(II) complexes in tumor and healthy cell lines was assessed through the MTS assay, a colorimetric method that is widely used to evaluate cellular viability, specifically mitochondrial viability.[53],[54] Cellular viability was determined after 48 h exposure to a concentration range (0.1–50 μM) of Cu(II) complexes in three tumor cell lines. […] Additionally, the viability of healthy primary dermal fibroblasts was performed as a comparison of the complexes’ antiproliferative effects in normal cells.
Cellular viability assays were performed using HCT116, HCT116-DoxR, and A2780 cancer cell lines as well as normal human primary fibroblasts. Cells were seeded at a density of 0.75 × 10^5 cells/mL in 96-well plates and incubated at 37 °C with 5% (v/v) CO2 for 24 h. After this incubation period, the copper complexes were accurately weighed and immediately dissolved in 100% (v/v) dimethyl sulfoxide (DMSO). Subsequently, the complexes were diluted to the final concentration using a cell culture medium. The culture medium in each well was replaced with fresh medium containing varying concentrations of the complexes (ranging from 0.01 to 50 μM). Negative controls contained culture medium with 0.1% (v/v) DMSO, and positive controls contained 0.4 μM Dox.
After an additional 48 h of incubation under the same conditions, cellular viability was assessed using the CellTiter 96 Aqueous One Solution Cell Proliferation Assay kit (Promega, Madison, USA). Metabolically active cells contain mitochondrial dehydrogenases that can reduce 3-(4,5-dimethylthiazol-2-yl)-5-(3-carboxymethoxyphenyl)-2-(4-sulfophenyl)-2H-tetrazolium, the inner salt (MTS) to formazan. The absorbance of formazan, measured at 490 nm in a microplate reader (Tecan Infinite M200, Tecan, Männedorf, Switzerland), is directly proportional to the number of viable cells.[104]
The cell viability versus concentration graphics were analyzed using Prism 8 software (GraphPad) to determine the half-maximal inhibitory concentration (IC50) of each complex for the respective cell line. Additionally, the selective index (SI) for each complex was calculated by dividing the IC50 of human fibroblasts by the IC50 values of the tested cancer cell lines.

HCT116-DoxR cells = assay: Autophagy induction (CYTO-ID green, flow cytometry); format: cell-based, human; conditions: 48 h; complexes at IC50, Dox 6 μM, Cis 5 μM, rapamycin 1500 nM
Description: Furthermore, previous studies have shown that complexes containing terpyridine derivatives have the ability to trigger both apoptosis and autophagy cell death mechanisms in cancer cells simultaneously.[38] This convergence of death pathways may arise from an adaptive response of the heterogeneous tumor cell population.[38] In this context, understanding the mechanism by which cells lose viability in the presence of the two Cu(II) complexes with the simultaneous induction of apoptosis and autophagy becomes crucial. Autophagy is a highly conserved catabolic process crucial for maintaining cellular homeostasis but is also associated with type II programmed cell death.[75] It involves intracellular degradation through autophagolysosomes responsible for breaking down luminal content and enabling recycling of cellular components.[76],[77] The assessment of the complexes’ ability to induce autophagy was conducted using flow cytometry, employing the CYTO-ID green detection reagent. This probe emits green fluorescence, marking the autophagic vacuoles within the cell. Higher fluorescence indicates a greater proportion of autophagolysosomes.[78] Three positive controls were used: Dox, Cis, and rapamycin (1500 nM), whose concentration was previously optimized for the HCT116-DoxR cell line in the laboratory.[64] Rapamycin is known to induce autophagy through its mechanistic target, mTOR.
Cell death via autophagy was evaluated using the Autophagy Assay Kit (ab139484; Abcam, Cambridge, United Kingdom), according to the manufacturers’ instructions. HCT116-DoxR cells were seeded at a density of 1 × 10^5 cells/mL in 6-well plates for 24 h, under the same conditions described before. After this incubation period, the culture medium was replaced with a fresh medium containing the copper complexes under evaluation at their IC50 concentration. A 0.1% (v/v) DMSO solution was used as the negative (vehicle) control, and 6 μM Dox and 5 μM Cis were used as positive controls. The cells were incubated again for 48 h. Rapamycin (1500 nM) was also added as a positive control, and it was added 18 h before the end of the 48 h incubation. After this period, the supernatant was discarded, and each well was washed with PBS 1×. Subsequently, cells were detached using TrypLE Express and washed with phenol red-free DMEM medium containing 5% (v/v) FBS. Cells were incubated with Green Stain Solution in phenol red-free DMEM medium containing 5% (v/v) FBS for 30 min at RT. After this period, the samples were washed and then resuspended in Assay Buffer 1×. The samples were analyzed using an Attune Acoustic Focusing Flow Cytometer (Life Technologies, Carlsbad, USA), and the results were analyzed via the Attune Cytometric software.

Row | SMILES | IC50 [1] | increase in autophagic vesicles compared to 0.1% DMSO control (HCT116-DoxR cells) | SI A2780 [1] | IC50 ([1]; Homo sapiens, A2780)
1 | N.N.[Cl][Pt][Cl] [Cisplatin] | 1900 ± 200 nM | increase in green fluorescence intensity | – | –
2 | [Cl][Cu-3]12([Cl])[n+]3ccccc3-c3cc(-c4cccc5ccccc45)cc([n+]31)-c1cccc[n+]12 [Cu1a] | 530 ± 70 nM | approximately 2 fold | 17.5 | –
3 | [Cl][Cu-3]12([Cl])[n+]3ccccc3-c3cc(-c4ccc5ccccc5c4)cc([n+]31)-c1cccc[n+]12 [Cu1b] | 570 ± 60 nM | approximately 2 fold | 23.3 | –
4 | COc1cccc2c1C(=O)c1c(O)c3c(c(O)c1C2=O)C[C@@](O)(C(=O)CO)C[C@@H]3O[C@H]1C[C@H](N)[C@H](O)[C@H](C)O1 [Doxorubicin] | – | 2.2 fold | – | 100 ± 40 nM
